From paper PMC5064002, “Sintokamide A Is a Novel Antagonist of Androgen Receptor That Uniquely Binds Activation Function-1 in Its Amino-terminal Domain” (The Journal of Biological Chemistry, 2016)
Positions count from the first letter of the chain named.

Key:
AR-YFP = molecular target: T1, AR-YFP (Homo sapiens, UniProt P10275); assay: AR nuclear translocation (AR-YFP) in LNCaP cells; format: cell-based; details: 10 μM compound
T1 construct: expressed in transfected cells; host or cells: LNCaP
T1 sequence (P10275 1-920): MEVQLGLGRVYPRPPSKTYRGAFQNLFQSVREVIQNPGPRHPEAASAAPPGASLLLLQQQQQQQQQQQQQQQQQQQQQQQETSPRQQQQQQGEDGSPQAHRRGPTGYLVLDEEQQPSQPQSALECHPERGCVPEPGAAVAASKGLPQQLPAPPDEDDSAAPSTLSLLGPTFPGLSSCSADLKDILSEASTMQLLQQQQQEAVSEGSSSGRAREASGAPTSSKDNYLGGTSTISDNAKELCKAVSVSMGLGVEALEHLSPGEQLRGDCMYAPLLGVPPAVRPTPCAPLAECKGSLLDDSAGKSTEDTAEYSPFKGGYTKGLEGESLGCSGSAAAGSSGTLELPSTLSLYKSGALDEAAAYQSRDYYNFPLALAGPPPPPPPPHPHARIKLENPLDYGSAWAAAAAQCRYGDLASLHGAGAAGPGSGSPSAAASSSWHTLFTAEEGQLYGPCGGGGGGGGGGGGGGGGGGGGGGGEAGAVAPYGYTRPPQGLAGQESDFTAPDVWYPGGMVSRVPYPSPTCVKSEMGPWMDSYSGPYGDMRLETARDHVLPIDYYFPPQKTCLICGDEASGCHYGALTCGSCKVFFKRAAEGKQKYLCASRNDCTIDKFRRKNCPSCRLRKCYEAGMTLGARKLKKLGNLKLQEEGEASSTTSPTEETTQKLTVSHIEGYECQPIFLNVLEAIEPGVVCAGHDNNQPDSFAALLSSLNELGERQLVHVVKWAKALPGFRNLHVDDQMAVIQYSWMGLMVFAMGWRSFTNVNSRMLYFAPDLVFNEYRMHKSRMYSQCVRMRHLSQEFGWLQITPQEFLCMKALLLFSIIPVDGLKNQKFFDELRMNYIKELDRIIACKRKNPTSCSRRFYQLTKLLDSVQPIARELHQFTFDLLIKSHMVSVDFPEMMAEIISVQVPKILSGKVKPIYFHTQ
Protocol: Cells were exposed to 1 nM R1881 for an additional 2 h, fixed with paraformaldehyde, and mounted in Vectashield antifade mounting medium with DAPI (H-1200, Vector Laboratories). Cellular localization of AR was examined by fluorescence microscopy using an Axiovert 200 microscope equipped with a YFP filter (excitation, 500/20 nm; emission, 535/30 nm; Zeiss, Toronto, Ontario, Canada). Images were taken using a Axiocam MR camera and the AxioVision 4.4 software (Zeiss, Toronto, ON, Canada).

[1] = Lability of SINT1 over the course of the studies; format: physicochemical; details: activity decreased over the course of the studies
Protocol: SINT1 is labile, and over the course of completing these studies its activity decreased. […] Therefore, we first evaluated its pharmacokinetics before in vivo studies were carried out to determine dose and route of delivery.

AR = molecular target: T2, AR (Homo sapiens, UniProt P10275, T878A); assay: AR-responsive luciferase reporters (PSA (6.1 kb), PB, ARR3) in LNCaP cells, SINT1 and EPI-002 alone or combined; format: cell-based; details: 1 nM R1881 48 h
T2 construct: endogenous in cells; host or cells: LNCaP
T2 sequence (P10275 1-920 T878A): T1 sequence (P10275 1-920) with T878A
Protocol: LNCaP cells were transfected with AR-responsive PSA (6.1 kb)-luciferase, PB-luciferase, and ARR3-luciferase reporters. Forty-eight hours later, cells were pretreated for 1 h with SINT1 (0–24 μM), EPI-002 (0–31 μM), or a combination with a constant ratio of 1:1.3 for EPI-002/SINT1 concentration. Cells were then incubated with 1 nM R1881 for 48 h, and a luciferase assay was performed. IC50 values for SINT1 for the three reporters were calculated using GraphPad Prism (version 6.01; GraphPad Software). The combination index of SINT1 and EPI-002 was calculated using CalcuSyn software. Combination indices >1, 1, and <1 indicate antagonism, additive affect, and synergy, respectively.

LNCaP cells = system: LNCaP cells; design: method as in PMID 18834139; details: cited from earlier work

CCC(=O)NC(CC(C)C(Cl)(Cl)Cl)C(=O)N1C(=O)C=C(OC)C1CC(C)C(Cl)Cl (stereo not shown) [SINT1, Sintokamide A]
nuclear translocation of AR in the absence of androgen (AR-YFP): AR remained cytoplasmic
nuclear translocation of AR in the presence of androgen (AR-YFP; 1 nM R1881 2 h): Androgen induced AR translocation to the nucleus regardless of treatments
stability [1]: labile
IC50 (AR; IC50, ARR3-Luc): 13.2 ± 1.19 µM
IC50 (AR; IC50, PB-Luc): 11.6 ± 0.78 µM
IC50 (AR; IC50, PSA (6.1 kb)-Luc): 10.7 ± 1.55 µM
androgen-dependent growth of LNCaP cells (LNCaP cells): block
